Where two headings read alike, the source gives them in different places. Marks after values point to notes of the source that are not given here.
Assays:
[1] = DPPH radical scavenging ability; conditions: for IC50 DPPH: DPPH radical scavenging test; for scavenging rate of DPPH free radicals: sample concentration 20 μg/mL, 30 min in the dark, 517 nm
Description: The method used to determine the abilities of DHM and its acylated derivatives was a previous method with some modifications. Two milliliters of DPPH (0.065 mg/mL) and 2 mL of the sample (3, 5, 10, 15, and 20 μg/mL) were added to a centrifuge tube and described at 517 nm after 30 min of reaction in a dark environment. Vc (a water-soluble antioxidant) and TBHQ (a lipid soluble antioxidant) were used as controls. (2) DPPH radical scavenging activity (%) =(1−A1 - A2/A0) × 100 where A0, A1, and A2 represent the absorbance values of the DPPH-ethanol, DPPH-sample, and sample-ethanol mixtures, respectively.

[2] = ABTS radical scavenging ability; conditions: ABTS radical scavenging test, 30 °C, 6 min, 734 nm
Description: The ability of DHM and its acylated derivatives to scavenge ABTS radicals was evaluated using a previous method with some modification. Samples (0.1 mL, 0.01, 0.02, 0.04, 0.06, and 0.08 mg/mL) were added to 3.9 mL of ABTS solution and measured at 734 nm after incubation at 30 °C for 6 min. Vc (a water-soluble antioxidant) and TBHQ (a lipid soluble antioxidant) were used as controls. (3) ABTS radical scavenging activity (%) =(1−A1 - A2/A0) × 100 where A0, A1, and A2 represent the absorbance values of the ABTS-ethanol, ABTS-samples, and samples-ethanol mixtures, respectively.

[3] = tested on: L-02 cells; assay: Cellular antioxidant activity (CAA) assay in L-02 cells; assay type: cell-based, Human
Description: Human normal hepatocytes (L-02 cells, passage number 4) were purchased from Cell Bank of Shanghai Institutes for Biological Sciences, Chinese Academy of Sciences (Shanghai, China) and cultured in RPMI 1640 medium (Invitrogen, Carlsbad, CA, USA) supplemented with 10% FBS and 1% penicillin-streptomycin double antibody and were cultured at 37 °C in 5% CO2.
The CAA assay was made using the method of Wolfe and Liu with modifications. L-02 cells were inoculated in black 96-well plates (6 × 10^4 /well, 100 μL) and incubated for 24 h. After removing culture medium, and the cells were washed with PBS and treated with the samples and DCFH-DA (25 μmol/L) for 1 h. Then, the cells were divided into two groups. One group was washed with PBS, and ABAP (600 μmol/L, 100 μL) was added to each well. Another group was only treated with adding 100 μL of ABAP (600 μmol/L) without washing. The black 96-well plates were measured by a Thermo Scientific Fluoroskan Ascent FL (Thermo Fisher Scientific, Waltham, MA, USA) every 5 min for 1 h at an emission wavelength of 538 nm and an excitation wavelength of 485 nm. Three control wells and one blank well were set. The control well was made up of the cells treated with ABAP but without samples, and the blank well was made up of the cells treated without ABAP and samples. Quercetin was used as the positive control. (6) CAA unit=1 - ∫SA/∫CA × 100 where ∫SA represents the area integral under the sample fluorescence value versus time curve and ∫CA represents the area integral under the control fluorescence value versus time curve.

[4] = Partition coefficient of lipids and water (log P), n-octanol/water by HPLC; assay type: physicochemical
Description: The lipophilicity of DHM and its derivatives was evaluated using log P, which was determined by a previous method with several modifications. Two milligrams of sample were dissolved in n-octanol solution (4 mL) saturated by water and analyzed using HPLC at 298 nm (A0). The n-octanol solution (1 mL) saturated by water containing the sample was mixed with water solution (1 mL) saturated by n-octanoland and then shaken using a constant-temperature water bath oscillator (Tianjin, China) at 30 °C for 24 h at 150 rpm. The ultraviolet absorbance of the upper solution was analyzed at 298 nm (Ax). The calculation equation of log P is as follows:(1) log P=log Ax / (A0 − Ax)

[5] = PBS wash between antioxidant and ABAP treatments, read-out: EC50 CAA Unit Wash
[6] = no PBS wash between antioxidant and ABAP treatments, read-out: EC50 CAA Unit No Wash
[7] = n-octanol/water, shaken at 30 °C for 24 h, HPLC at 298 nm
[8] = Homo sapiens, L02, PBS wash between antioxidant and ABAP treatments, read-out: EC50 CAA Unit Wash
[9] = Homo sapiens, L02, no PBS wash between antioxidant and ABAP treatments, read-out: EC50 CAA Unit No Wash

| Structure (SMILES) | IC50 DPPH [1] | IC50 ABTS [2] | log P [4] | logP at 24 h [4, 7] | scavenging rate of DPPH free radicals [1] | EC50 [3, 5] | EC50 [3, 6] | log P [4, 7] | EC50 [3, 8] | EC50 [3, 9] |
| --- | --- | --- | --- | --- | --- | --- | --- | --- | --- | --- |
| CC(=O)OC1C(=O)c2c(O)cc(O)cc2OC1c1cc(O)c(O)c(O)c1 (stereo not drawn) [C2-DHM, 3-O-acetyl-DHM] | 9.07 ± 0.10 ^bc μg/mL | 58.29 ± 2.20 ^a μg/mL | – | – | 92.58 ± 1.33% | 172 ± 8.84 µM | 77.8 ± 3.81 µM | 1.32 | – | – |
| CCCC(=O)OC1C(=O)c2c(O)cc(O)cc2OC1c1cc(O)c(O)c(O)c1 (stereo not drawn) [C4-DHM, 3-O-butyryl-DHM] | 9.08 ± 0.25 ^bc μg/mL | 56.30 ± 1.03 ^a μg/mL | 1.50 | – | 92.70 ± 0.79% | 60.7 ± 0.64 µM | 60.8 ± 6.23 µM | – | – | – |
| O=c1c(O)c(-c2ccc(O)c(O)c2)oc2cc(O)cc(O)c12 [Quercetin, reference compound] | – | – | – | – | – | – | – | – | 29 ± 0.36 µM | 33.9 ± 3.67 µM |
| CCCCCC(=O)OC1C(=O)c2c(O)cc(O)cc2OC1c1cc(O)c(O)c(O)c1 (stereo not drawn) [C6-DHM, 3-O-hexanoyl-DHM] | 11.17 ± 0.04 ^bc μg/mL | 77.22 ± 1.46 ^a μg/mL | – | – | 82.53 ± 1.98% | 52.9 ± 2.69 µM | 65.2 ± 3 µM | 1.67 | – | – |

The next lines start with results.

| IC50 DPPH [1] | IC50 ABTS [2] | log P [4] | logP at 24 h [4, 7] | Structure (SMILES) | scavenging rate of DPPH free radicals [1] | EC50 [3, 5] | EC50 [3, 6] | log P [4, 7] | EC50 [3, 8] | EC50 [3, 9] |
| --- | --- | --- | --- | --- | --- | --- | --- | --- | --- | --- |
| 12.69 ± 0.09 ^c μg/mL | 80.15 ± 0.42 ^a μg/mL | 1.73 | – | CCCCCCCC(=O)OC1C(=O)c2c(O)cc(O)cc2OC1c1cc(O)c(O)c(O)c1 (stereo not drawn) [C8-DHM, 3-O-octanoyl-DHM] | 74.14 ± 0.40% | 35.14 ± 0.29 µM | 45.4 ± 0.74 µM | – | – | – |
| 4.23 ± 1.38 ^a μg/mL | 61.02 ± 2.15 ^a μg/mL | – | – | O=C1O[C@H]([C@@H](O)CO)C(O)=C1O [Vc, L-ascorbic acid, reference compound] | – | – | – | – | – | – |
| 35.93 ± 5.63 ^d μg/mL | 360.69 ± 50.13 ^b μg/mL | 1.80 | – | CCCCCCCCCCCC(=O)OC1C(=O)c2c(O)cc(O)cc2OC1c1cc(O)c(O)c(O)c1 (stereo not drawn) [C12-DHM, 3-O-lauroyl-DHM] | 29.62 ± 4.88% | 122 ± 9.48 µM | 234 ± 9.69 µM | – | – | – |
| 9.04 ± 0.09 ^bc μg/mL | 46.51 ± 2.19 ^a μg/mL | – | 0.81 | O=C1c2c(O)cc(O)cc2O[C@H](c2cc(O)c(O)c(O)c2)[C@H]1O [DHM, Dihydromyricetin] | 93.37 ± 1.83% | – | – | – | 226 ± 4.67 µM | 90.2 ± 5.02 µM |
| 7.55 ± 0.18 ^ab μg/mL | 79.34 ± 3.37 ^a μg/mL | – | – | CC(C)(C)c1cc(O)ccc1O [TBHQ, tert-butylhydroquinone, reference compound] | – | – | – | – | – | – |

Source: article PMC10217546, “Antioxidant Activities of Dihydromyricetin Derivatives with Different Acyl Donor Chain Lengths Synthetized by Lipozyme TL IM” (Foods, 2023)
